Experimental data reported in patent US5059602A, “4-substituted dihydropyrido(4,3-d)pyrimidines as analgesics and topical antiinflammatory agents for the treatment of skin disorders” (Hoechst-Roussel Pharmaceuticals Inc., priority 1990, dated 1991).
Structures can show the parent of a compound that is named as a salt. Where two headings read alike, the source gives them in different places.

Columns and labels:
[1] = tested on: 2-phenyl-1,4-benzoquinone-induced writhing; test: 2-phenyl-1,4-benzoquinone-induced writhing test (PQW); format: in vivo, mice; details: Mus musculus, sc, read-out: PQW % Inhibition of writhing
[2] = tested on: ear edema induced by topical application of TPA (phorbol 12-myristate acetate); test: TPA-Induced Ear Edema (TPAEE); format: in vivo, Female Swiss Webster mice; details: for change in vivo at 10 µg/ear: 5 h, read-out: TPAEE
Description: TPA-Induced Ear Edema (TPAEE)
The purpose of this assay was to determine the ability of a topically-applied compound to prevent ear edema induced by topical application of TPA (phorbol 12-myristate acetate). Female Swiss Webster mice topically received TPA (10 μg/ear) on the right ear and vehicle on the left ear. The test compound (10 μg/ear) was applied to both ears. After five hours, the animals were sacrificed and an ear punch (4 mm) was taken from each ear. The difference in right and left ear punch weights for each animal was determined to assess activity. […] See Young, J. M. et al., J. Invest. Dermatol., 80 (1983), pp. 48-52.

[3] = tested on: naja naja (snake venom) phospholipase A2 -induced paw edema; test: Phospholipase A2-induced Paw Edema (PIPE); format: in vivo, male Wistar rats; details: 0.1M; rat hindpaw, subplantar injection with PLA2 (3 units/paw), 2 hours
Description: Phospholipase A2 -induced Paw Edema (PIPE)
The ability of compounds to prevent naja naja (snake venom) phospholipase A2 -induced paw edema in male Wistar rats (100-125 g) was measured. PLA2 (3 units/paw) alone or with 0.1M of the test compound was injected in the subplantar region of the rat left hindpaw. Immediately subsequent to the injection and at two hours post administration the paw was immersed in a mercury bath, and paw displacement was measured on a recorder via a transducer. […] See Giessler, A. J. et al., Agents and Actions, Vol. 10, Trends in Inflammation Research (1981), p. 195.

[4] = tested on: mouse ear edema induced by topical application of arachidonic acid; test: Arachidonic Acid-Induced Ear Edema (AAEE); format: in vivo, Female Swiss Webster mice; details: for AAEE: 1.0 mg (per ear), mouse
Description: Arachidonic Acid-Induced Ear Edema (AAEE)
The purpose of this assay was to determine the ability of a topically-applied compound to prevent mouse ear edema induced by topical application of arachidonic acid. Female Swiss Webster mice topically received vehicle or test compound (1.0 mg/ear) on both ears (10 μl on outer and inner ears). After 30 minutes, the right ear of all groups received arachidonic acid (4 mg/ear) and the left ear received vehicle alone. After an additional 1 hour, the mice were sacrificed and an ear punch (4 mm) was taken from each ear. The difference in right and left ear punch weights for each animal was determined to assess activity. […] See Young, J. M. et al., Invest. Dermatol., 80, (1983), pp 48-52.

[5] = 10 μg (per ear), mouse, five hours

SMILES | PIPE (difference in edema vs. control) [3] | change in vivo at 10 µg/ear [2, 5] | further results
CC1c2cnccc2N=CN1Cc1ccccc1 (centres unmarked) [3,4-Dihydro-4-methyl-3-phenylmethylpyrido[4,3-d]pyrimidine dihydrochloride] | – | – | inhibition in vivo at 20 mg/kg [1]: 85%; change in vivo at 10 µg/ear ([2]; Mus musculus): -55%
Cl.Cl.Nc1ccncc1CNCc1ccccc1 [3-[(Phenylmethylamino)methyl]-4-pyridinamine dihydrochloride] | -51% | – | –
CC(NCc1ccccc1)c1cnccc1N (stereo not drawn) [4-Amino-α-methyl-N-(phenylmethyl)-3-pyridinemethanamine] | – | -45% | inhibition in vivo at 20 mg/kg ([1]; 20 mg/kg, s.c.): 58%
C1=NC(C2CCCCC2)c2cnccc2N1.Cl.Cl (centres unmarked) [4-Cyclohexyl-1,4-dihydropyrido[4,3-d]pyrimidine dihydrochloride] | -44% | – | –
Nc1ccncc1C(N)c1ccccc1 (centres unmarked) [(4-Amino-3-pyridinyl)benzenemethanamine dihydrochloride] | -66% | – | –
Cl.Cl.Nc1ccncc1C(N)C1CCCCC1 (centres unmarked) [(4-Amino-3-pyridinyl)cyclohexylmethanamine dihydrochloride] | -68% | -36% | AAEE [4]: -28%
Nc1ccncc1C(=O)C1CCCCC1 [(4-Amino-3-pyridinyl)cyclohexylmethanone hydrochloride] | – | -53% | –
Nc1ccncc1C(=NO)C1CCCCC1 [(4-Amino-3-pyridinyl)cyclohexylmethanone oxime hydrochloride] | – | -34% | –
Nc1ccncc1C(=NO)c1ccccc1 [(4-Amino-3-pyridinyl)phenylmethanone oxime hydrochloride] | – | -32% | –
CC(=O)c1cnccc1NC(=O)C(C)(C)C [N-(3-Acetyl-4-pyridinyl)-2,2-dimethylpropanamide] | – | – | inhibition in vivo at 20 mg/kg ([1]; 20 mg/kg, s.c.): 34%
CC(NCc1ccccc1)c1cnccc1NC(=O)C(C)(C)C.Cl.Cl (centres unmarked) [N-[3-[1-(Phenylmethylamino)ethyl]-4-pyridinyl]-2,2-dimethylpropionamide dihydrochloride] | – | – | AAEE [4]: -44%
CCCCNCc1cnccc1NC(=O)C(C)(C)C.Cl.Cl [N-[3-[(Butylamino)methyl]-4-pyridinyl]-2,2-dimethylpropanamide dihydrochloride] | – | – | AAEE [4]: -45%
C[C@]12CCC(=O)C=C1CC[C@@H]1[C@@H]2[C@@H](O)C[C@@]2(C)[C@H]1CC[C@]2(O)C(=O)CO [hydrocortisone, reference compound] | – | – | ED50 ([2]; standard, TPAEE): 47 μg/ear
COc1ccc2c(c1)c(CC(=O)O)c(C)n2C(=O)c1ccc(Cl)cc1 [indomethacin, reference compound] | – | – | ED50 ([4]; standard, AAEE): 1.5 mg/ear
CC(C)(C)C(=O)Nc1ccncc1C(O)C1CCCCC1 (stereo not drawn) [α-Cyclohexyl-α-[4-(2,2-dimethylpropionamido)-3-pyridinyl]-methanol] | -35% | -55% | inhibition in vivo at 20 mg/kg ([1]; 20 mg/kg, s.c.): 32%; AAEE [4]: -52%
CC(O)c1cnccc1NC(=O)C(C)(C)C (stereo not drawn) [α-Methyl-α-[4-(2,2-dimethylpropionamido)-3-pyridinyl]-methanol] | – | -46% | –
